What follows are molecules tested against T1, KRas G12C (Homo sapiens, UniProt P01116, G12C) (assay: Inhibition of KRas G12C-dependent cell growth: Phospho-ERK in NCI-H358 cells). Conditions: NCI-H358 cells expressing KRas G12C; Phospho-ERK (Thr202/Tyr204) normalized to GAPDH; 3 hours compound; 4 parameter fit.
T1 construct: NCI-H358 cells (ATCC CRL-5807) express KRas G12C
Assay type: cell-based
Outline: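 NCI-H358 cells (KRas G12C) exposed to compounds for 3 h, 0.5% DMSO final. Fixed cells immunostained for pERK(Thr202/Tyr204) and GAPDH with infrared secondary antibodies. pERK normalized to GAPDH, expressed as percent of DMSO control; IC50 from 4-parameter dose-response fit.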

T1 sequence (P01116 1-188 isoform P01116-2 G12C): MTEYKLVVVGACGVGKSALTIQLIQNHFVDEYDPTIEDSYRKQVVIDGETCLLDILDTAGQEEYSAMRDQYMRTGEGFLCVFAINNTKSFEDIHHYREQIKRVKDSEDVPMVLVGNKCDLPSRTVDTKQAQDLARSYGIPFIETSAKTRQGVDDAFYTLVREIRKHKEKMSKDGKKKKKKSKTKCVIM

| SMILES | IC50 [nM] |
| --- | --- |
| C=C(F)C(=O)N1CCN(c2nc(OC[C@@H]3CC(F)(F)CN3C)nc3c(F)c(-c4cncc5cccc(C)c45)ncc23)C[C@@H]1CC#N [Example 45, 2-((S)-4-(2-(((S)-4,4-difluoro-1-methylpyrrolidin-2-yl)methoxy)-8-fluoro-7-(5-methylisoquinolin-4-yl)pyrido[4,3-d]pyrimidin-4-yl)-1-(2-fluoroacryloyl)piperazin-2-yl)acetonitrile] | 205 |
| C=CC(=O)N1CCN(c2ncnc3c(F)c(-c4cc(F)cc5ccccc45)ncc23)C[C@@H]1CC#N [Example 249] | 1250 |
| C=CC(=O)N1CCN(c2nc(OC[C@@H]3CCCN3C)nc3c(F)c(-c4ccccc4F)ncc23)[C@@H](C)C1 [Example 100] | 10000 |
| C=C(F)C(=O)N1CCN(c2nc(OC[C@@H]3CC(F)(F)CN3C)nc3c(F)c(-c4cccc5cccc(C)c45)ncc23)C[C@@H]1CC#N [Example 13, 2-((S)-4-(2-(((S)-4,4-difluoro-1-methylpyrrolidin-2-yl)methoxy)-8-fluoro-7-(8-methylnaphthalen-1-yl)pyrido[4,3-d]pyrimidin-4-yl)-1-(2-fluoroacryloyl)piperazin-2-yl)acetonitrile] | 127 |
| C=C(F)C(=O)N1CCN(c2nc(OC[C@@H]3CCCN3C)nc3c(F)c(-c4c(C)ccc5cnn(C)c45)ncc23)C[C@@H]1CC#N [Example 99] | 444 |
| C=C(F)C(=O)N1CCN(c2nc(OCC34CCCN3C(CF)CC4)nc3c(F)c(-c4cccc5ccc(F)c(Cl)c45)ncc23)C[C@@H]1CC#N (some centres unmarked) [Example 188] | 29 |
| C=CC(=O)N1CC[C@@H]2[C@H]1CN2c1nc(OC[C@@H]2CCCN2C)nc2c(F)c(-c3cccc4ccc(F)c(Cl)c34)ncc12 [Example 239] | 5 |
| Cc1cccc2cccc(-c3ncc4c(N5CCN(C(=O)/C=C/CF)[C@@H](CC#N)C5)nc(OC[C@@H]5C[C@@H](F)CN5C)nc4c3F)c12 [Example 17, 2-[(2S)-1-[(E)-4-fluorobut-2-enoyl]-4-[8-fluoro-2-[[(2S,4R)-4-fluoro-1-methyl-pyrrolidin-2-yl]methoxy]-7-(8-methyl-1-naphthyl)pyrido[4,3-d]pyrimidin-4-yl]piperazin-2-yl]acetonitrile] | 59 |
| C=C(F)C(=O)N1CCN(c2nc(OC[C@@H]3C[C@@H](F)CN3C)nc3c(F)c(-c4cncc5cccc(Cl)c45)ncc23)C[C@@H]1CC#N [Example 52, 2-[(2S)-4-[7-(5-chloro-4-isoquinolyl)-8-fluoro-2-[[(2S,4R)-4-fluoro-1-methyl-pyrrolidin-2-yl]methoxy]pyrido[4,3-d]pyrimidin-4-yl]-1-(2-fluoroprop-2-enoyl)piperazin-2-yl]acetonitrile] | 23 |
| C=CC(=O)N1CCN(c2ncnc3c(F)c(-c4cccc5cccc(Cl)c45)ncc23)CC1 [Example 137] | 3350 |
| C=C(F)C(=O)N1CCN(c2nc(OC[C@@H]3CCCN3CC(F)F)nc3c(F)c(-c4cccc5ccc(F)c(Cl)c45)ncc23)C[C@@H]1CC#N [Example 185] | 145 |
| C=C(F)C(=O)N1CCN(c2nc(O[C@@H]3CO[C@H]4[C@@H]3OC[C@H]4O)nc3c(F)c(-c4cccc5ccc(F)c(Cl)c45)ncc23)C[C@@H]1CC#N [Example 240] | 10000 |
| C=C(F)C(=O)N1CCN(c2nc(OC[C@H]3CCCN3C)nc3c(F)c(-c4cccc5cccc(C)c45)ncc23)C[C@@H]1CC#N [Example 16, 2-((S)-4-(8-fluoro-7-(8-methylnaphthalen-1-yl)-2-(((R)-1-methylpyrrolidin-2-yl)methoxy)pyrido[4,3-d]pyrimidin-4-yl)-1-(2-fluoroacryloyl)piperazin-2-yl)acetonitrile] | 118 |
| C=C(F)C(=O)N1CCN(c2nc(OCC34CCCN3CCC4)nc3c(F)c(-c4cccc5ccc(F)c(Cl)c45)ncc23)C[C@@H]1CC#N [Example 114] | 2 |
| C=CC(=O)N1CC[C@@H]2[C@H]1[C@@H](C)N2c1ncnc2c(F)c(-c3cccc4ccc(F)c(Cl)c34)ncc12 [Example 279] | 408 |
| C=CC(=O)N1CC2(C1)CN(c1ncnc3c(F)c(-c4cccc5ccc(F)c(Cl)c45)ncc13)C2 [Example 159] | 10000 |
| C=CC(=O)N1CCN(c2nc(OCC34CCCN3CCC4)nc3c(F)c(-c4cccc5ccc(F)c(Cl)c45)ncc23)CC1 [Example 102] | 12 |
| C=C(F)C(=O)N1CCN(c2nc(OC[C@@H]3CCCN3C)nc3c(F)c(-c4cccc5cccc(Cl)c45)ncc23)[C@H](C)C1 [Example 76] | 3000 |
| C=C(F)C(=O)N1CCN(c2nc(OC[C@H]3CCN3CC)nc3c(F)c(-c4cccc5ccc(F)c(Cl)c45)ncc23)C[C@@H]1CC#N [Example 172] | 18 |
| C#Cc1cccc2cc(O)cc(-c3ncc4c(N5C[C@@H]6[C@H]5CCN6C(=O)C=C)nc(OCC56CCCN5CCC6)nc4c3F)c12 [Example 293, 1-((1R, 5R)-6-(7-(8-ethynyl-3-hydroxynaphthalen-1-yl)-8-fluoro-2-((tetrahydro-1H-pyrrolizin-7a(5H)-yl)methoxy)pyrido[4,3-d]pyrimidin-4-yl)-2,6-diazabicyclo[3.2.0]heptan-2-yl)prop-2-en-1-one] | 65 |
| C=C(F)C(=O)N1CCN(c2nc(N3CC(N(C)C)C3)nc3c(F)c(-c4cccc5cccc(Cl)c45)ncc23)C[C@@H]1CC#N [Example 91] | 29 |

| SMILES | IC50 [nM] |
| --- | --- |
| C=C(F)C(=O)N1CCN(c2nc(OCC34CCCN3C[C@H](F)C4)nc3c(F)c(-c4cccc5ccc(F)c(Cl)c45)ncc23)C[C@@H]1CC#N (some centres unmarked) [Example 145] | 2 |
| CN(C)CC#CC(=O)N1CCN(c2ncnc3c(F)c(-c4cccc5ccc(F)c(Cl)c45)ncc23)CC1 [Example 200] | 410 |
| C=CC(=O)N1C[C@@H]2[C@H]1CCN2c1ncnc2c(F)c(-c3cccc4ccc(F)c(Cl)c34)ncc12 [Example 190] | 10000 |
| C=C(F)C(=O)N1CCN(c2nc(OC[C@@H]3C[C@@H](F)CN3C)nc3c(F)c(-c4cccc5cccc(Cl)c45)ncc23)C[C@@H]1CC#N [Example 42, 2-[(2S)-4-[7-(8-chloro-1-naphthyl)-8-fluoro-2-[[(2S,4R)-4-fluoro-1-methyl-pyrrolidin-2-yl]methoxy]pyrido[4,3-d]pyrimidin-4-yl]-1-(2-fluoroprop-2-enoyl)piperazin-2-yl]acetonitrile] | 18 |
| C=CC(=O)N1CC[C@@H]2[C@H]1CN2c1ncnc2c(F)c(-c3cccc4ccc(F)c(CC)c34)ncc12 [Example 304, 1-((1R,5R)-6-(7-(8-ethyl-7-fluoronaphthalen-1-yl)-8-fluoropyrido[4,3-d]pyrimidin-4-yl)-2,6-diazabicyclo[3.2.0]heptan-2-yl)prop-2-en-1-one] | 456 |
| C=C(F)C(=O)N1CCN(c2nc(OC[C@@H]3CCCN3C(C)C)nc3c(F)c(-c4cccc5cccc(Cl)c45)ncc23)C[C@@H]1CC#N [Example 125] | 42 |
| C=CC(=O)N1C[C@@H]2[C@H]1CCN2c1nc(OC[C@@H]2CCCN2C)nc2c(F)c(-c3cccc4ccc(F)c(Cl)c34)ncc12 [Example 228] | 230 |
| C=C(F)C(=O)N1CCN(c2nc(OCCNS(C)(=O)=O)nc3c(F)c(-c4cccc5ccc(F)c(Cl)c45)ncc23)C[C@@H]1CC#N [Example 120] | 976 |
| C=C(F)C(=O)N1CCN(c2nc(OC[C@@H]3CCCN3C3CC3)nc3c(F)c(-c4cccc5ccc(F)c(Cl)c45)ncc23)C[C@@H]1CC#N [Example 209] | 46 |
| C#Cc1cccc2cncc(-c3ncc4c(N5C[C@@H]6[C@H]5CCN6C(=O)C=C)ncnc4c3F)c12 [Example 295] | 418 |
| C=CC(=O)N1CCN(c2nc(OC[C@@H]3CCCN3C)nc3c(F)c(-c4ccccc4F)ncc23)CC1 [Example 184] | 10000 |
| C=CC(=O)N1CC[C@@H]2[C@H]1CN2c1ncnc2c(F)c(-c3cccc4ccsc34)ncc12 [Example 278] | 10000 |
| C=C(F)C(=O)N1CCN(c2nc(OCC3CN(C)C3)nc3c(F)c(-c4cccc5ccc(F)c(Cl)c45)ncc23)C[C@@H]1CC#N [Example 127] | 243 |
| C=CC(=O)N1CCN(c2ncnc3c(F)c(-c4cc(O)cc5ccccc45)ncc23)CC1 [Example 218, 1-(4-(8-fluoro-7-(3-hydroxynaphthalen-1-yl)pyrido[4,3-d]pyrimidin-4-yl)piperazin-1-yl)prop-2-en-1-one] | 711 |
| Cc1cccc2cccc(-c3ncc4c(N5CCN(C(=O)/C=C/CF)[C@@H](CC#N)C5)nc(OCCCN5C[C@@H]6C[C@H]5CO6)nc4c3F)c12 [Example 30, 2-[(2S)-1-[(E)-4-fluorobut-2-enoyl]-4-[8-fluoro-7-(8-methyl-1-naphthyl)-2-[3-[(1S,4S)-2-oxa-5-azabicyclo[2.2.1]heptan-5-yl]propoxy]pyrido[4,3-d]pyrimidin-4-yl]piperazin-2-yl]acetonitrile] | 131 |
| C=C(F)C(=O)N1CCN(c2nc(OC[C@@H]3[C@@H](F)CCN3C)nc3c(F)c(-c4cccc5ccc(F)c(Cl)c45)ncc23)C[C@@H]1CC#N [Example 176] | 30 |
| C=CC(=O)N1CC[C@@H]2[C@H]1CN2c1ncnc2c(F)c(-c3cncc4cccc(Cl)c34)ncc12 [Example 251] | 799 |
| C=CC(=O)N1CCN(c2nc(OC)nc3c(F)c(-c4cccc5ccc(F)c(Cl)c45)ncc23)C[C@@H]1CC#N [Example 136] | 92 |
| C=CC(=O)N1CCN(c2ncnc3c(F)c(-c4cccc(Cl)c4C4CC4)ncc23)C[C@@H]1CC#N [Example 241] | 111 |
| C=C(F)C(=O)N1CCN(c2nc(OC[C@@H]3CCCN3C)nc3c(C#N)c(-c4cccc5cccc(C)c45)ncc23)C[C@@H]1CC#N [Example 58, 4-[(3S)-3-(cyanomethyl)-4-(2-fluoroprop-2-enoyl)piperazin-1-yl]-7-(8-methyl-1-naphthyl)-2-[[(2S)-1-methylpyrrolidin-2-yl]methoxy]pyrido[4,3-d]pyrimidine-8-carbonitrile] | 330 |

From US11548888B2, “KRas G12C inhibitors” (Mirati Therapeutics, Inc., priority 2019, dated 2023)
